{"source": "patent US10898502B2", "about": "“Treatment of diseases using a combination of ultraviolet blood irradiation and antibiotics” (priority 2014, dated 2021)", "key": {"[1]": {"experiment": "Adverse reactions seen in the treated patients", "details": "Example 2 patient; medication discontinued"}, "[2]": {"details": "human, in vivo"}, "[3]": {"test_system": "MAP", "details": "cited from earlier work"}, "[4]": {"test_system": "cathelicidin", "details": "cited from earlier work"}, "[5]": {"test_system": "M. tuberculosis", "details": "cited from earlier work"}}}
{"compound": "NCC1(CC(=O)O)CCCCC1", "note": "[Gabapentin]", "values": [{"measurement": "Tolerability at the lowest recommended dose", "setting": "[1]", "value": "very dizzy"}]}
{"compound": "Cn1cnc([N+](=O)[O-])c1Sc1ncnc2nc[nH]c12", "note": "[azathioprine]", "values": [{"measurement": "Liver enzymes leading to discontinuation", "setting": "[2]", "value": "elevated ALT and AST"}]}
{"compound": "Vitamin A", "values": [{"measurement": "Growth of MAP in vitro", "setting": "[3]", "value": "inhibit the growth of MAP"}]}
{"compound": "Vitamin D", "values": [{"measurement": "Intracellular production of cathelicidin", "setting": "[4]", "value": "induces"}, {"measurement": "Growth of MAP in vitro", "setting": "[3]", "value": "inhibit the growth of MAP"}, {"measurement": "Proliferation of M. tuberculosis in macrophages", "setting": "[5]", "value": "reduce the proliferation"}]}
